Assay results reported in paper PMC3001897, “High-Throughput Chemical Screen Identifies a Novel Potent Modulator of Cellular Circadian Rhythms and Reveals CKIα as a Clock Regulatory Kinase” (PLoS Biology, 2010).
Several values for one entry are separate records, joined by “and”; a condition that tells them apart may be missing. Equal values may be shown once.

What was measured:
ERK2 = molecular target: T1, ERK2 (Homo sapiens, UniProt P28482); experiment: In vitro kinase assay, ERK2; type: biochemical
T1 construct: purchased Millipore 14-550
Description: The CKIδ, CKIα, CDK7, and ERK2 kinase assays were performed on 384-well plates (10 µl volume). The reaction mixture was as follows: for CKIδ, 2 ng/µl CKIδ (Millipore, 14-520), 50 µM peptide substrate RKKKAEpSVASLTSQCSYSS corresponding to human PER2 Lys659-Ser674 [47], and CKI buffer (40 mM Tris, 10 mM MgCl2, 0.5 mM DTT, 0.1 mg/ml BSA, pH 7.5); for CKIα, 1 ng/µl CKIα (Invitrogen, PV3850), 50 µM CKI peptide substrate (Anaspec, 60547-1), and CKI buffer; for CDK7, 5 ng/µl CDK7 (Millipore, 14-476), 100 µM Cdk7/9 peptide substrate (Millipore, 12-526), and CKI buffer; for ERK2, 1.5 ng/µl ERK2 (Millipore, 14-550), 0.8 µg/µl MBP (Millipore, 13-104), and ERK buffer (50 mM Tris, 10 mM MgCl2, 0.5 mM DTT, 1 mM EGTA, pH 7.5). Five hundred nl of compound was added to the mixture (final 5% DMSO), and the reaction was started by adding ATP (final 5 µM). After incubation at 30°C for 3h, 10 µl of Kinase-Glo Luminescent Kinase Assay reagent (Promega) was added, and the luminescence was detected to determine remaining ATP amount. […] IC50 value was obtained by using Prism software (GraphPad Software).

lung explants = experiment: Circadian period in lung explants from mPer2Luc knockin mice; type: cell-based, mouse; details: 0 to 9 µM
Description: Explants of lung and SCN were dissected from mPer2^Luc knockin mice and cultured in explant medium as described previously. The medium was changed every week with increasing concentration of longdaysin each time (from 0 to 9 µM, final 0.7% DMSO). The luminescence was recorded every 10 min with LumiCycle luminometer (Actimetrics), and the period parameter was obtained by using LumiCycle Analysis software (Actimetrics).

CKIδ = CKIδ (Homo sapiens, UniProt P48730); experiment: PER2-LUC degradation assay, CKIδ; type: cell-based; details: HEK293T, 0 to 20 µM, 24 h
Bmal1-dLuc U2OS cells = experiment: U2OS cell-based circadian assay (Bmal1-dLuc luminescence rhythms); parameters: species or system human
Description: The compound screen was done with the high-throughput circadian assay system as described previously. In brief, Bmal1-dLuc U2OS cells were suspended in the culture medium (DMEM supplemented with 10% fetal bovine serum, 0.29 mg/ml L-glutamine, 100 units/ml penicillin, and 100 µg/ml streptomycin) and plated onto 384-well white solid-bottom plates at 20 µl (2,000 cells) per well. After 2 d, 50 µl of the explant medium (DMEM supplemented with 2% B27, 10 mM HEPES, 0.38 mg/ml sodium bicarbonate, 0.29 mg/ml L-glutamine, 100 units/ml penicillin, 100 µg/ml streptomycin, 0.1 mg/ml gentamicin, and 1 mM luciferin, pH 7.2) was dispensed to each well, followed by the application of 500 nl of compounds (dissolved in DMSO; final 0.7% DMSO). The plate was covered with an optically clear film and set to luminescence monitoring system equipped with a CCD imager (ViewLux, Perkin Elmer). The luminescence was recorded every 2 h for 3–4 days. In follow-up studies, the luminescence was recorded every 100 min by using a microplate reader (Infinite M200, Tecan). The period parameter was obtained from the luminescence rhythm by curve fitting program CellulaRhythm or MultiCycle (Actimetrics), both of which gave similar results.

[1] = system: protein kinases (CKIδ, CKIα, ERK2, CDK7, p38α; ERK1); experiment: Affinity chromatography with compound 3 resin and U2OS cell lysate; type: binding, human
Description: U2OS cells kept in confluence (2×10^8 cells) were collected with ice-cold PBS and homogenized by using Dounce homogenizer in 5 ml of lysis buffer (25 mM MOPS, 15 mM EGTA, 15 mM MgCl2, 1 mM DTT, 60 mM β-glycerophosphate, 15 mM p-nitrophenyl phosphate, 1 mM Na3VO4, 1 mM NaF, 1 mM phenyl phosphate, 10 µg/ml leupeptin, 10 µg/ml aprotinin, 10 µg/ml soybean trypsin inhibitor, 100 µM benzamidine, pH7.2). The homogenate was sonicated and centrifuged (16,000×g) at 4°C for 20 min. The resulting supernatant was split into two, and each portion was incubated with or without 100 µM longdaysin (final 0.1% DMSO) at 4°C for 10 min (Figure 2C). Then, 120 µl of compound 3 [50% slurry in bead buffer (50 mM Tris, 250 mM NaCl, 5 mM EDTA, 5 mM EGTA, 0.1% NP-40, 5 mM NaF, 10 µg/ml leupeptin, 10 µg/ml aprotinin, 10 µg/ml soybean trypsin inhibitor, 100 µM benzamidine, pH 7.4)] was added to the mixture and incubated at 4°C for 1 h with rotation. […]
All gel bands were subjected to LC-MS/MS analysis as described previously. Tandem MS data were analyzed using Sequest (ThermoFinnigan, San Jose, CA; Version 3.0). […]
Scaffold (version Scaffold_2_05_00, Proteome Software Inc., Portland, OR) was used to validate MS/MS based peptide and protein identifications. […] Crude differential quantitation of proteins identified in both pulldown experiments was performed by comparing the number of assigned peptides.

[2] = Bmal1-dLuc U2OS cells, from Figure 1B

T1 sequence (P28482 whole entry, species assumed): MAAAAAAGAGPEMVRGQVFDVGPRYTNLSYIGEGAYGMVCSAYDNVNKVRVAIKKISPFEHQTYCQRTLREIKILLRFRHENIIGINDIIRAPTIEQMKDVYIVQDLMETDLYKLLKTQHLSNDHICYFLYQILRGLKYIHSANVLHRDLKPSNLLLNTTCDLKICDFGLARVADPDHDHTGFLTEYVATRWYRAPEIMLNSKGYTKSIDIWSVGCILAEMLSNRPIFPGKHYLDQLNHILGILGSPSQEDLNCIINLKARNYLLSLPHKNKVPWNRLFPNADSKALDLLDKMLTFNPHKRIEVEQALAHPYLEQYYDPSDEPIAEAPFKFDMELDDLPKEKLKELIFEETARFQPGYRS
Sequence of CKIδ (P48730 whole entry, species assumed): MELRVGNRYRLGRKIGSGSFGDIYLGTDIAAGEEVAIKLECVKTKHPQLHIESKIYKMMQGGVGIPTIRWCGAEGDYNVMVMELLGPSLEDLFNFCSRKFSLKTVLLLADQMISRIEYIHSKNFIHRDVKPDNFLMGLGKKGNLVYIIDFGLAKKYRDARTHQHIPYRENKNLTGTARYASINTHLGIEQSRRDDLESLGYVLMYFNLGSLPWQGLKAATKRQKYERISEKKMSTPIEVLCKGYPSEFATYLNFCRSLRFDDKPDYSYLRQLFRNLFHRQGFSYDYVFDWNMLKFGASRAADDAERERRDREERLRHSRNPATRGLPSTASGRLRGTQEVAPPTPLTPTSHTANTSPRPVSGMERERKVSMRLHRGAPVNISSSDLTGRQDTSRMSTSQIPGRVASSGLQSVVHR

SMILES: CC(C)n1cnc2c(NCc3cccc(C(F)(F)F)c3)ncnc21 [Longdaysin, 9-isopropyl-N-(3-(trifluoromethyl)benzyl)-9H-purin-6-amine]
- IC50 (ERK2; ATP 5 µM, from Figure 2E): 52 µM
- Inhibition of ERK2 in vitro (ERK2; range of 3 to 24 µM): considerably inhibited ERK2 in vitro
- Effect on circadian period (lung explants): dose-dependent period lengthening
- Effect on CKIδ-mediated PER2-LUC degradation (CKIδ): inhibited the CKIδ-mediated PER2-LUC degradation in a dose-dependent manner
- Period change (lengthening) (Bmal1-dLuc U2OS cells; 10 µM, U2OS cells): > 10 h and 13 h
- Concentration for period change, 5 h (Bmal1-dLuc U2OS cells; [2]): 1.5 µM
- Concentration for period change, 10 h (Bmal1-dLuc U2OS cells; [2]): 5.7 µM
- Concentration for period change, 15 h (Bmal1-dLuc U2OS cells; [2]): 13 µM
- Potency relative to compound 1 (times more potent) (Bmal1-dLuc U2OS cells; period lengthening): 3 times
- Reversibility of period effect after washout (Bmal1-dLuc U2OS cells; washout, U2OS cells, mouse fibroblasts, lung (Figure S2)): reversible
- Binding of protein kinases to the affinity resin on competition ([1]; 100 µM free longdaysin as soluble competitor): decreased binding in the presence of free longdaysin
- Signal reduction of listed binding proteins upon competition ([1]; 100 µM free longdaysin, tandem MS spectra): ≥ 3 fold
